We go through 15 molecules from patent US20100311729A1, “Substituted imidazopyridazines and pyrrolopyrimidines as lipid kinase inhibitors” (priority 2007, published 2010).

A value given as a limit tells only on which side of the number the result lay.

What all share (assay type): biochemical
One assay addresses T1, PI3K alfa (Homo sapiens, UniProt P42336).
T1 construct: for the p110-a subunit (with a deletion of the first 20 amino acids); His tag (C); made in house; host or cells: baculovirus; Tn5 (Trichoplusia ni) or TiniPro insect cells
The assay can be described thus: PI3 kinase assay (Kinase-Glo luminescence), PI3K alfa. The settings on record: Enzymatic Data; read-out: PI3K alfa IC50 [umol]. The procedure, abridged: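 Recombinant PI3K constructs (alfa 10 nM, delta 10 nM, gamma 150 nM) with 1 μM ATP and 10 μg/mL phosphatidylinositol in Tris pH 7.5, MgCl2, NaCl, CHAPS, DTT; 60 min (alfa, delta) or 120 min (gamma) at room temperature. ATP depletion read by Kinase-Glo luminescence; IC50 from 4-parameter logistic fit over 8 concentrations.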
Background: Kinase-Glo measures the ATP left after a reaction by luminescence.

Another assay deals with T2, PI3K beta (Homo sapiens, UniProt P42338).
T2 construct: for the full-length p110-b subunit are generated and fused by overlapping PCR; His tag (C); made in house; host or cells: baculovirus; Tn5 (Trichoplusia ni) or TiniPro insect cells
T2 sequence (P42338 with tags, fused parts or gaps limits assumed): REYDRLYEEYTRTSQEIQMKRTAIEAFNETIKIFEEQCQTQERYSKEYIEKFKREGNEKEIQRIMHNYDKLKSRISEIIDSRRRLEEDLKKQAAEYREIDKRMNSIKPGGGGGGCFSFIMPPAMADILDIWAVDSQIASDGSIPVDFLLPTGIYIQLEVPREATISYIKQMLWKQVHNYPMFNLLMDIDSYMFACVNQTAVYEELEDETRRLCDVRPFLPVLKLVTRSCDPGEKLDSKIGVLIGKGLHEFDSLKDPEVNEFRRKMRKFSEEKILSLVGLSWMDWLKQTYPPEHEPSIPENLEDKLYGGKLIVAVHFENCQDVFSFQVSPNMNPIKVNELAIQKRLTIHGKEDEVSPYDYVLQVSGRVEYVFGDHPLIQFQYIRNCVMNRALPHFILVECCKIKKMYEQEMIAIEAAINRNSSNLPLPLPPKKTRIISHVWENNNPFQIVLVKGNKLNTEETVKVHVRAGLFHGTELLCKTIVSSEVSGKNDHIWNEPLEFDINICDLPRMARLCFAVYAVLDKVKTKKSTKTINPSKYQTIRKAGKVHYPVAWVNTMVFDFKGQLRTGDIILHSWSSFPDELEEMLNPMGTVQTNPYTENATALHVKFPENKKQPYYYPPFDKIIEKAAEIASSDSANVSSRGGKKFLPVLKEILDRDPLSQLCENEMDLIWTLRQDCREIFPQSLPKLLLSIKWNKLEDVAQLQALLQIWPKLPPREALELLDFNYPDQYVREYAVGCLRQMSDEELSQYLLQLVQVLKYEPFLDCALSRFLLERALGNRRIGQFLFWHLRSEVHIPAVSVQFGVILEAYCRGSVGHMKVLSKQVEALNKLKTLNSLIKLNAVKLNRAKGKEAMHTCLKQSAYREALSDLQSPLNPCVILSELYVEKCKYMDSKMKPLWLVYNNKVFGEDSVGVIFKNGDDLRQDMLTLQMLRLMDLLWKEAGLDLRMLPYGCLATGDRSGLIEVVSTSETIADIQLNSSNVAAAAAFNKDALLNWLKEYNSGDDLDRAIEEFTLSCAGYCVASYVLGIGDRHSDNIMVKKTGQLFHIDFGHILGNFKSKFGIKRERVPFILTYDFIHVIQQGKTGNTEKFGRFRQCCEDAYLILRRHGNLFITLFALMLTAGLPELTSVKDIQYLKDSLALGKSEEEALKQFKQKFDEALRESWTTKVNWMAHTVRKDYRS
The assay can be described thus: PI3 kinase assay (Kinase-Glo luminescence), PI3K beta. To be noted: Enzymatic Data; read-out: PI3K beta IC50 [umol]. As for the experimental part: (§1) In a more preferred assay, the kinase reaction is performed in a final volume of 10 μL per well of a low volume non binding CORNING, 384 well black plate (Cat. No. #3676). The final concentrations of ATP and phosphatidyl inositol (PI) in the assay are 1 μM and 10 μg/mL respectively. The reaction is started by the addition of ATP.
(§2) The components of the assay are added per well as follows:
(§3) 50 nL test compounds in 90% DMSO per well, in columns 1-20, 8 concentrations (1/3 and 1/3.33 serial dilution step) in single. • Low control: 50 nL of 90% DMSO in half the wells of columns 23-24 (0.45% in final). • High control: 50 nL of reference compound (e.g. compound of Example 7 in WO 2006/122806, incorporated by reference hereinin that regard) in the other half of columns 23-24 (2.5 μM in final). • Standard: 50 nL of reference compound as just mentioned diluted as the test compounds in columns 21-22 • 20 mL ‘buffer’ are prepared per assay: • 200 μL of 1M TRIS HCl pH7.5 (10 mM in final) • 60 μL of 1M MgCl2 (3 mM in final) • 500 μL of 2M NaCl (50 mM in final) • 100 μL of 10% CHAPS (0.05% in final) • 200 μL of 100 mM DTT (1 mM in final) • 18.94 mL of nanopure water • 10 mL ‘PI’ are prepared per assay: • 200 μL of 1 mg/ml L-alpha-Phosphatidylinositol (Liver Bovine, Avanti Polar Lipids Cat. No. 840042C MW=909.12) prepared in 3% OctylGlucoside (10 μg/ml in final) • 9.8 mL of ‘buffer’ • 10 mL ‘ATP’ are prepared per assay: • 6.7 μL of 3 mM stock of ATP giving a final concentration of 1 μM per well • 10 mL of ‘buffer’ • 2.5 mL of each PI3K construct are prepared per assay in ‘PI’ with the following final concentration : • 10 nM PI3K alfa B-1075 • 25 nM beta BV-949 • 10 nM delta BV-1060 • 150 nM gamma BV-950 • 5 μL of ‘PI/PI3K’ are added per well. • 5 μl ‘ATP’ are added per well to start the reaction. • The plates are then incubated at room temperature for 60 minutes (alfa, beta, delta) or 120 minutes (gamma). • The reaction is terminated by the addition of 10 μL Kinase-Glo (Promega Cat. No. #6714). • The assay plates are read after 10 minutes in Synergy 2 reader (BioTek, Vermont USA) with an integration time of 100 milliseconds and sensitivity set to 191. • Output : The High control is around 60'000 counts and the Low control is 30'000 or lower • This luminescence assay gives a useful Z′ ratio between 0.4 and 0.7
(§4) […] is determined by a four parameter curve fitting routine that comes aloneg with “excel fit”. A 4 Parameter logistic equation is used to calculate IC50 values (IDBS XLfit) of the percentage inhibition of each compound at 8 concentrations (usually 10, 3.0, 1.0, 0.3, 0.1, 0.030, 0.010 and […]). Alternatively, IC50 values are calculated using idbsXLfit model 204, which is a 4 parameter logistic model.
(§5) Testing with the following kinases in the test system mentioned above, with the kinases given in the following tables, the following IC 50 data can be obtained: […]

In a further assay the target is T3, PI3K delta (Homo sapiens, UniProt O00329).
T3 construct: for the full-length p110-d subunit are generated and fused by overlapping PCR; His tag (C); made in house; host or cells: baculovirus; Tn5 (Trichoplusia ni) or TiniPro insect cells
T3 sequence (O00329 with tags, fused parts or gaps limits assumed): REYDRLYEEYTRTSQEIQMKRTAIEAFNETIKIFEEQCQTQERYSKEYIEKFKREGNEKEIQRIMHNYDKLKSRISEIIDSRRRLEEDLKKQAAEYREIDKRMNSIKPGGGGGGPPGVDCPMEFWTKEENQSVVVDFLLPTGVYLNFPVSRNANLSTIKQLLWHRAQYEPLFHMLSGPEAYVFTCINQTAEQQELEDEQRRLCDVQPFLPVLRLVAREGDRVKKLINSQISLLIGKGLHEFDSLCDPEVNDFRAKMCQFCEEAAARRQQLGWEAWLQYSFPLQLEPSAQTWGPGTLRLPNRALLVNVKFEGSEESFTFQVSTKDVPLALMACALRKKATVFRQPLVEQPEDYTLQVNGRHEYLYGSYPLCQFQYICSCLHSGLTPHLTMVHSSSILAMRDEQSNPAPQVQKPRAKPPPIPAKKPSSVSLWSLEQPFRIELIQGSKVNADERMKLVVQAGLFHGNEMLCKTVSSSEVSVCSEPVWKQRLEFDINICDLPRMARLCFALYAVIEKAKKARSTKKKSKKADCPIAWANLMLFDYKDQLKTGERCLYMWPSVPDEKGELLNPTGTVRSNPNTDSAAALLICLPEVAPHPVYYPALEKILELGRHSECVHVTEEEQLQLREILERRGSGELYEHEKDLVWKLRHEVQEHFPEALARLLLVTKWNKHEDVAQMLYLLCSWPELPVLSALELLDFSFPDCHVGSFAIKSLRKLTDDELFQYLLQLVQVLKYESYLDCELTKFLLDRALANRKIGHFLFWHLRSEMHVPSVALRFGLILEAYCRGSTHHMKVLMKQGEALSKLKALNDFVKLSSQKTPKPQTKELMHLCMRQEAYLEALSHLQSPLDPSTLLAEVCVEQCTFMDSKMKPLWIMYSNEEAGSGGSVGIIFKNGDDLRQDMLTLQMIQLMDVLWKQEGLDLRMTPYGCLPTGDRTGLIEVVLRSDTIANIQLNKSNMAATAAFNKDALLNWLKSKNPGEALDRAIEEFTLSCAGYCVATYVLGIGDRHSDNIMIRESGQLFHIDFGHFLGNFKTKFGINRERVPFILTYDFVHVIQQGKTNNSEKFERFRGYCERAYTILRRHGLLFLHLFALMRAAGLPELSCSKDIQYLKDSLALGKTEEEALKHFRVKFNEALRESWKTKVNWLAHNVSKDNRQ
The assay can be described thus: PI3 kinase assay (Kinase-Glo luminescence), PI3K delta. To be noted: Enzymatic Data; read-out: PI3K delta IC50 [umol]. As for the experimental part: as §1, §2, §3, §4, §5

The target of another assay is T4, PI3K gamma (Homo sapiens, UniProt P48736).
T4 construct: PI3Kγ BV-950 p110g(D144aa)-C-Term His Tag; His tag (C); made in house; host or cells: construct from the Roger Williams lab (MRC LMB) in pVL1393; baculovirus; Tn5 (Trichoplusia ni) or TiniPro insect cells
T4 sequence (P48736 144-1102 limits assumed): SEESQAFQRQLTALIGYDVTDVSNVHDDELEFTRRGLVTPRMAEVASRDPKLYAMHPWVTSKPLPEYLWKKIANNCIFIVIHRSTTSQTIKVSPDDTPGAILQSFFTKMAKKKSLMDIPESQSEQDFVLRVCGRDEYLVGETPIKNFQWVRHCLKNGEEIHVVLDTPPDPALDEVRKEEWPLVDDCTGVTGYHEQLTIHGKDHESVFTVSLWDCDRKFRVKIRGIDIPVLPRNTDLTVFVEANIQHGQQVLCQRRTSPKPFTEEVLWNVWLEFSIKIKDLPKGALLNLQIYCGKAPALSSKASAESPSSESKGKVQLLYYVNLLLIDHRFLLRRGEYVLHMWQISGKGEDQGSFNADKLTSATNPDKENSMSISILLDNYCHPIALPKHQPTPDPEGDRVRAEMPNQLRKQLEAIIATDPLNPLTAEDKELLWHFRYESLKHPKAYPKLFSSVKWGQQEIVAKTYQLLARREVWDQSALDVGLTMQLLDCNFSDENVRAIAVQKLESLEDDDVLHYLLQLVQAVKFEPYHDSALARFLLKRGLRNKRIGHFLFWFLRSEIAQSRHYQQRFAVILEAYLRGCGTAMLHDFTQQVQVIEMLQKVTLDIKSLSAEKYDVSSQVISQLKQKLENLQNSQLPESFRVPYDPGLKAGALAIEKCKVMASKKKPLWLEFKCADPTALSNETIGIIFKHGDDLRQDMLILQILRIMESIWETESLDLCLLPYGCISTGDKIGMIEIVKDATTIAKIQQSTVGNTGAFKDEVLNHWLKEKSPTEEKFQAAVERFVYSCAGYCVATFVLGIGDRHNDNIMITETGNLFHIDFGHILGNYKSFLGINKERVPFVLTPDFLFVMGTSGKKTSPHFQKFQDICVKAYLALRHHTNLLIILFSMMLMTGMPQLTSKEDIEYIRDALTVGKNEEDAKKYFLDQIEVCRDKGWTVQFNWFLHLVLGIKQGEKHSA
Nature of the assay: PI3 kinase assay (Kinase-Glo luminescence), PI3K gamma. The settings on record: Enzymatic Data; read-out: PI3K gamma IC50 [umol]. As for the experimental part: as §1, §2, §4

T1 sequence (P42336 with tags, fused parts or gaps limits assumed): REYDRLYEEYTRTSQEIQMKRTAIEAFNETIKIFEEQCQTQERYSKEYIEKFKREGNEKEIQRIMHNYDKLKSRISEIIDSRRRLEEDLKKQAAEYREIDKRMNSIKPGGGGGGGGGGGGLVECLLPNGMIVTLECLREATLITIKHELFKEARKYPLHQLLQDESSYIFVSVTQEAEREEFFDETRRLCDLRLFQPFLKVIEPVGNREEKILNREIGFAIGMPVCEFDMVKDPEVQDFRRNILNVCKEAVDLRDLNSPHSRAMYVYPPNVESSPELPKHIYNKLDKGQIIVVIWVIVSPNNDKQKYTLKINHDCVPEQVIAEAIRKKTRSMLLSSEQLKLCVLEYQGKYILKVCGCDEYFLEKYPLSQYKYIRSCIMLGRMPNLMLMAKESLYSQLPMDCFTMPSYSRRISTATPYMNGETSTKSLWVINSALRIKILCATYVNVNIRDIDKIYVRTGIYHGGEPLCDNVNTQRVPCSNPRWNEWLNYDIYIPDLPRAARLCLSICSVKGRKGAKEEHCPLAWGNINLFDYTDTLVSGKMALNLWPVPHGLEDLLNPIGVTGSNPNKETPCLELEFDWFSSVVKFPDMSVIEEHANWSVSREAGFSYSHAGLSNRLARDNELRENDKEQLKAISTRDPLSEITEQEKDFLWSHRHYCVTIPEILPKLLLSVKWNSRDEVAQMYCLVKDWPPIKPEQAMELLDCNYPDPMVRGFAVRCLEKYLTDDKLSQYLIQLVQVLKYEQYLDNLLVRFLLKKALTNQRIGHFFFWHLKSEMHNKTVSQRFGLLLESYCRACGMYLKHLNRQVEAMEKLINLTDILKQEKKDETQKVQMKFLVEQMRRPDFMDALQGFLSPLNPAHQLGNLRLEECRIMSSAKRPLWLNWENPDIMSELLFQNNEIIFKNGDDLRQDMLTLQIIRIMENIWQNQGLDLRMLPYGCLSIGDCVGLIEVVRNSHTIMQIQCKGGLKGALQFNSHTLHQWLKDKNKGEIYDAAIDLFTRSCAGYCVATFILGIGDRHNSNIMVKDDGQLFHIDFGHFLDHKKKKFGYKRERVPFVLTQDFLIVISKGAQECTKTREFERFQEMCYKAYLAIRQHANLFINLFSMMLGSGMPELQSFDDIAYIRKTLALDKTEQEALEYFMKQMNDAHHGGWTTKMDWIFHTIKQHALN

For `COc1ccc(-c2ccc3ncc(-c4cncc(C(F)(F)F)c4)n3n2)cc1OC` [Example 53, 6-(3,4-Di-methoxy-phenyl)-3-(5-trifluoro-methyl-pyridin-3-yl)-imidazo [1,2-b] pyridazine], the IC50 on PI3K alfa is 275 nM; on PI3K beta, 1240 nM; at PI3K delta it was 401 nM; on PI3K gamma, 1080 nM.
The matching figures for `Nc1ncc(-c2ccc3ncc(-c4cncc(C(F)(F)F)c4)n3n2)cc1C(F)(F)F` [Example 54, 3-Trifluoro-methyl-5-[3-(5-trifluoro-methyl-pyridin-3-yl)-imidazo [1,2-b]pyridazin-6-yl]-pyridin-2-ylamine]: 147 nM, 274 nM, 231 nM and 814 nM.
As to `NCCCOc1ccc(-c2ccc3ncc(-c4cnc(N)c(C(F)(F)F)c4)n3n2)cc1` [Example 56, 5-{6-[4-(3-Amino-propoxy)-phenyl]-imidazo [1,2-b]pyridazin-3-yl}-3-trifluoro-methyl-pyridin-2-ylamine], the IC50 at PI3K alfa was found to be 203 nM; at PI3K beta it was 183 nM; on PI3K delta, 167 nM; at PI3K gamma, 56 nM.
As to `CC(C)C(=O)NCCCOc1ccc(-c2ccc3ncc(-c4cnc(N)c(C(F)(F)F)c4)n3n2)cc1` [Example 57, N-(3-{4-[3-(6-Amino-5-trifluoro-methyl-pyridin-3-yl)-imidazo [1,2-b]pyridazin-6-yl]-phenoxy}-propyl)-isobutyr-amide], the IC50 at PI3K alfa was 23 nM; at PI3K beta, 3370 nM; on PI3K delta it was 384 nM; on PI3K gamma it was 1040 nM.
In the same order, the values of `Nc1ncc(-c2cnc3ccc(-c4ccc(OCCCNC(=O)C5CC5)cc4)nn23)cc1C(F)(F)F` [Example 58, Cyclopropanecarboxylic acid (3-{4-[3-(6-amino-5-trifluoromethyl-pyridin-3-yl)-imidazo[1,2-b]pyridazin-6-yl]-phenoxy}-propyl)-amide] are 87 nM, over 9100 nM, 2140 nM and over 9100 nM.
The matching figures for `COc1cc(-c2ccc3ncc(-c4cnc(N)c(C(F)(F)F)c4)n3n2)ccc1OCCN` [Example 59, 5-{6-[4-(2-Amino-ethoxy)-3-methoxy-phenyl]-imidazo [1,2-b]pyridazin-3-yl}-3-trifluoro-methyl-pyridin-2-ylamine]: 33 nM, 24 nM, 60 nM and 401 nM.
In the same order, the values of `COc1cc(-c2ccc3ncc(-c4cnc(N)c(C(F)(F)F)c4)n3n2)ccc1OCCNC(=O)C(C)C` [Example 60, N-(2-{4-[3-(6-Amino-5-trifluoro-methyl-pyridin-3-yl)-imidazo [1,2-b]pyridazin-6-yl]-2-methoxy-phenoxy}-ethyl)-isobutyr-amide] are 36 nM, 267 nM, 223 nM and 159 nM.
Take `COc1cc(-c2ccc3ncc(-c4cnc(N)c(C(F)(F)F)c4)n3n2)ccc1OCCNC(=O)C1CC1` [Example 61, Cyclo-propane-carboxylic acid (2-{4-[3-(6-amino-5-trifIuoro-methyl-pyridin-3-yl)-imidazo [1,2-b)pyridazin-6-yl]-2-methoxy-phenoxy}-ethyl)-amide]: the IC50 worked out at 205 nM at PI3K alfa, 1000 nM at PI3K beta, 428 nM at PI3K delta and 884 nM on PI3K gamma.
As for `COc1cc(-c2ccc3ncc(-c4cnc(N)c(C(F)(F)F)c4)n3n2)ccc1OCCNC(C)=O` [Example 62, N-(2-{4-[3-(6-Amino-5-trifluoro-methyl-pyridin-3-yl)-imidazo[1,2-b]pyridazin-6-yl]-2-methoxy-phenoxy}-ethyl)-acetamide], the IC50 at PI3K alfa is 28 nM; on PI3K beta, 156 nM; on PI3K delta it was 138 nM; at PI3K gamma, 1360 nM.
The matching figures for `NCCCOc1ccc(-c2ccc3ncc(-c4cnc(N)c(C(F)(F)F)c4)n3n2)cc1OC(F)(F)F` [Example 63, 5-{6-[4-(3-Amino-propoxy)-3-trifluoro-methoxy-phenyl]-imidazo [1,2-b]pyridazin-3-yl}-3-trifluoro-methyl-pyridin-2-ylamine]: 153 nM, 176 nM, 180 nM and 39 nM.
In the same order, the values of `CC(C)C(=O)NCCCOc1ccc(-c2ccc3ncc(-c4cnc(N)c(C(F)(F)F)c4)n3n2)cc1OC(F)(F)F` [Example 64, N-(3-{4-[3-(6-Amino-5-trifluoro-methyl-pyridin-3-yl)-imidazo [1,2-b]pyridazin-6-yl]-2-trifluoro-methoxy-phenoxy}-propyl)-iso-butyramide] are 562 nM, over 9100 nM, 6810 nM and 316 nM.
The matching figures for `COc1cc(-c2ccc3ncc(-c4cnc(N)c(C(F)(F)F)c4)n3n2)ccc1OCCCNC(=O)C1CC1` [Example 65]: 26 nM, 505 nM, 345 nM and 483 nM.
As for `Nc1cnc(-c2cnc3ccc(-c4cnc(N)c(C(F)(F)F)c4)nn23)cn1` [Example 66, 5-[6-(6-Amino-5-trifluoro-methyl-pyridin-3-yl)-imidazo [1,2-b]pyridazin-3-yl]-pyrazin-2-ylamine], the IC50 on PI3K alfa amounted to 8 nM; on PI3K beta, 3 nM; at PI3K delta, 17 nM; at PI3K gamma it was 479 nM.
In the same order, the values of `COc1nc(-c2cnc3ccc(-c4cnc(N)c(C(F)(F)F)c4)nn23)cnc1N` [Example 67, 5-[6-(6-Amino-5-trifIuoro-methyl-pyridin-3-yl)-imidazo[1,2-b]pyridazin-3-yl]-3-methoxy-pyrazin-2-ylamine] are 34 nM, 21 nM, 85 nM and 2630 nM.
In the same order, the values of `COc1ccc(-c2ccc3ncc(-c4cnc(N)c(OC)n4)n3n2)cc1OC` [Example 68, 5-[6-(3,4-Dimethoxy-phenyl)-imidazo [1,2-b]pyridazin-3-yl]-3-methoxy-pyrazin-2-ylamine] are 9 nM, 51 nM, 26 nM and 1300 nM.
